Laboratory results as given in PubChem BioAssay AID2060507 (Molecular Pharmacology Branch, DTP, NCI, 2025).
pIC50: −log10 of the molar value.

Tested on: 519858-162-T-J1-PDC complex spheroid viability
Assay: Anticancer human tumor 519858-162-T-J1-PDC patient-derived colon adenocarcinoma cell line growth inhibition [GQUAD]
Conditions: for pIC50: curve of first compound; for viability, T/C: stronger effect = lower value
Outline: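 Tumor cells were grown as complex spheroids with HUVEC endothelial cells and mesenchymal stem cells as stroma. G-quadruplex stabilizers were combined with targeted agents over half-log dilutions from near the clinical Cmax, or from 10 microM.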

[1] = second compound 0.0316 µM, first compound 0.0316 µM
[2] = second compound 0.0316 µM, first compound 0.1 µM
[3] = second compound 0.0316 µM, first compound 0.316 µM
[4] = second compound 0.0316 µM, first compound 1 µM
[5] = second compound 0.0316 µM, first compound 3.16 µM
[6] = second compound 0.0316 µM, first compound 10 µM
[7] = second compound 0.1 µM, first compound 0.0316 µM
[8] = second compound 0.1 µM, first compound 0.1 µM
[9] = second compound 0.1 µM, first compound 0.316 µM
[10] = second compound 0.1 µM, first compound 1 µM
[11] = second compound 0.1 µM, first compound 3.16 µM
[12] = second compound 0.1 µM, first compound 10 µM
[13] = second compound 0.316 µM, first compound 0.0316 µM
[14] = second compound 0.316 µM, first compound 0.1 µM
[15] = second compound 0.316 µM, first compound 0.316 µM
[16] = second compound 0.316 µM, first compound 1 µM
[17] = second compound 0.316 µM, first compound 3.16 µM
[18] = second compound 0.316 µM, first compound 10 µM
[19] = second compound 1 µM, first compound 0.0316 µM
[20] = second compound 1 µM, first compound 0.1 µM
[21] = second compound 1 µM, first compound 0.316 µM
[22] = second compound 1 µM, first compound 1 µM
[23] = second compound 1 µM, first compound 3.16 µM
[24] = second compound 1 µM, first compound 10 µM
[25] = second compound 3.16 µM, first compound 0.0316 µM
[26] = second compound 3.16 µM, first compound 0.1 µM
[27] = second compound 3.16 µM, first compound 0.316 µM
[28] = second compound 3.16 µM, first compound 1 µM
[29] = second compound 3.16 µM, first compound 3.16 µM
[30] = second compound 3.16 µM, first compound 10 µM
[31] = second compound 10 µM, first compound 0.0316 µM
[32] = second compound 10 µM, first compound 0.1 µM
[33] = second compound 10 µM, first compound 0.316 µM
[34] = second compound 10 µM, first compound 1 µM
[35] = second compound 10 µM, first compound 3.16 µM
[36] = second compound 10 µM, first compound 10 µM
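Further: spheroids exposed to compounds for 7 days.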
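Wherever viability, T/C is given: 100% = DMSO vehicle control viability.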

SMILES: CC(C)(O)C1CCC(Nc2ccc3ncc(-c4cccc(C(F)(F)F)c4)n3n2)CC1 (stereo not drawn) + Cc1cnc(CNC(=O)c2c(=O)c3ccc(N4CCCN(C)CC4)nc3n3c2sc2ccccc23)cn1
- pIC50 (second compound 0.0316 µM): 5.67
- pIC50 (second compound 0.1 µM): 5.70
- pIC50 (second compound 0.316 µM): 5.84
- pIC50 (second compound 1 µM): 6.58
- pIC50 (second compound 3.16 µM): > 7.50
- pIC50 (second compound 10 µM): 7.50
- viability, T/C [1]: 101%
- viability, T/C [2]: 111%
- viability, T/C [3]: 93.2%
- viability, T/C [4]: 103%
- viability, T/C [5]: 11%
- viability, T/C [6]: 36.5%
- viability, T/C [7]: 87.6%
- viability, T/C [8]: 95.5%
- viability, T/C [9]: 107%
- viability, T/C [10]: 105%
- viability, T/C [11]: 8.82%
- viability, T/C [12]: 24.6%
- viability, T/C [13]: 107%
- viability, T/C [14]: 72.4%
- viability, T/C [15]: 63.5%
- viability, T/C [16]: 80.9%
- viability, T/C [17]: 20.8%
- viability, T/C [18]: 31.2%
- viability, T/C [19]: 71.1%
- viability, T/C [20]: 68.8%
- viability, T/C [21]: 42.1%
- viability, T/C [22]: 48.5%
- viability, T/C [23]: 42.4%
- viability, T/C [24]: 52.3%
- viability, T/C [25]: 37.5%
- viability, T/C [26]: 43.1%
- viability, T/C [27]: 50.8%
- viability, T/C [28]: 47.1%
- viability, T/C [29]: 31.4%
- viability, T/C [30]: 20.8%
- viability, T/C [31]: 36.4%
- viability, T/C [32]: 45.3%
- viability, T/C [33]: 52.3%
- viability, T/C [34]: 64.7%
- viability, T/C [35]: 9.24%
- viability, T/C [36]: 0.75%

SMILES: COc1cc(C2c3cc4c(cc3C(OC3OC5COC(C)OC5C(O)C3O)C3COC(=O)C23)OCO4)cc(OC)c1O (stereo not drawn) + Cc1cnc(CNC(=O)c2c(=O)c3ccc(N4CCCN(C)CC4)nc3n3c2sc2ccccc23)cn1
- pIC50 (second compound 0.0316 µM): < 5.00
- pIC50 (second compound 0.1 µM): < 5.00
- pIC50 (second compound 0.316 µM): 5.09
- pIC50 (second compound 1 µM): < 5.00
- pIC50 (second compound 3.16 µM): 5.27
- pIC50 (second compound 10 µM): > 7.50
- viability, T/C [1]: 90%
- viability, T/C [2]: 94.6%
- viability, T/C [3]: 94.9%
- viability, T/C [4]: 105%
- viability, T/C [5]: 59.7%
- viability, T/C [6]: 83.3%
- viability, T/C [7]: 93.7%
- viability, T/C [8]: 115%
- viability, T/C [9]: 86.5%
- viability, T/C [10]: 79.9%
- viability, T/C [11]: 80.4%
- viability, T/C [12]: 64.4%
- viability, T/C [13]: 59%
- viability, T/C [14]: 69.9%
- viability, T/C [15]: 103%
- viability, T/C [16]: 63.8%
- viability, T/C [17]: 71.9%
- viability, T/C [18]: 45.1%
- viability, T/C [19]: 80.4%
- viability, T/C [20]: 51.6%
- viability, T/C [21]: 62%
- viability, T/C [22]: 58.7%
- viability, T/C [23]: 55.2%
- viability, T/C [24]: 61.8%
- viability, T/C [25]: 57%
- viability, T/C [26]: 60.3%
- viability, T/C [27]: 66.5%
- viability, T/C [28]: 55.7%
- viability, T/C [29]: 49.5%
- viability, T/C [30]: 47.7%
- viability, T/C [31]: 52.8%
- viability, T/C [32]: 40.8%
- viability, T/C [33]: 56.4%
- viability, T/C [34]: 41%
- viability, T/C [35]: 42.5%
- viability, T/C [36]: 74.1%

SMILES: COc1cccc2c1C(=O)c1c(O)c3c(c(O)c1C2=O)CC(O)(C(=O)CO)CC3OC1CC(N)C(O)C(C)O1 (stereo not drawn) + Cc1cnc(CNC(=O)c2c(=O)c3ccc(N4CCCN(C)CC4)nc3n3c2sc2ccccc23)cn1
- pIC50 (second compound 0.0316 µM): < 5.00
- pIC50 (second compound 0.1 µM): < 5.00
- pIC50 (second compound 0.316 µM): < 5.00
- pIC50 (second compound 1 µM): < 5.00
- pIC50 (second compound 3.16 µM): 6.24
- pIC50 (second compound 10 µM): > 7.50
- viability, T/C [1]: 105%
- viability, T/C [2]: 85.3%
- viability, T/C [3]: 63.1%
- viability, T/C [4]: 81.8%
- viability, T/C [5]: 71.5%
- viability, T/C [6]: 59.9%
- viability, T/C [7]: 108%
- viability, T/C [8]: 80.2%
- viability, T/C [9]: 91%
- viability, T/C [10]: 79.1%
- viability, T/C [11]: 67%
- viability, T/C [12]: 58.8%
- viability, T/C [13]: 89.9%
- viability, T/C [14]: 51.9%
- viability, T/C [15]: 80.7%
- viability, T/C [16]: 44.4%
- viability, T/C [17]: 50.6%
- viability, T/C [18]: 74.3%
- viability, T/C [19]: 82.2%
- viability, T/C [20]: 44.3%
- viability, T/C [21]: 88.7%
- viability, T/C [22]: 53.4%
- viability, T/C [23]: 47.7%
- viability, T/C [24]: 57.6%
- viability, T/C [25]: 55.9%
- viability, T/C [26]: 61.1%
- viability, T/C [27]: 55%
- viability, T/C [28]: 33.6%
- viability, T/C [29]: 55.7%
- viability, T/C [30]: 47.1%
- viability, T/C [31]: 36%
- viability, T/C [32]: 52.4%
- viability, T/C [33]: 43.9%
- viability, T/C [34]: 39.5%
- viability, T/C [35]: 41.4%
- viability, T/C [36]: 31.8%

SMILES: O=C(NO)c1cnc(N2CCN(S(=O)(=O)c3ccc4ccccc4c3)CC2)nc1 + Cc1cnc(CNC(=O)c2c(=O)c3ccc(N4CCCN(C)CC4)nc3n3c2sc2ccccc23)cn1
- pIC50 (second compound 0.0316 µM): 6.61
- pIC50 (second compound 0.1 µM): 6.47
- pIC50 (second compound 0.316 µM): 6.46
- pIC50 (second compound 1 µM): 6.76
- pIC50 (second compound 3.16 µM): 6.97
- pIC50 (second compound 10 µM): > 7.50
- viability, T/C [1]: 119%
- viability, T/C [2]: 72.2%
- viability, T/C [3]: 50.9%
- viability, T/C [4]: 13.3%
- viability, T/C [5]: 0.34%
- viability, T/C [6]: 0.45%
- viability, T/C [7]: 81.2%
- viability, T/C [8]: 104%
- viability, T/C [9]: 53%
- viability, T/C [10]: 11.7%
- viability, T/C [11]: 1.16%
- viability, T/C [12]: 1.51%
- viability, T/C [13]: 92%
- viability, T/C [14]: 85.8%
- viability, T/C [15]: 53.8%
- viability, T/C [16]: 8.35%
- viability, T/C [17]: 5.71%
- viability, T/C [18]: 1.25%
- viability, T/C [19]: 88.7%
- viability, T/C [20]: 66.8%
- viability, T/C [21]: 31.8%
- viability, T/C [22]: 6.88%
- viability, T/C [23]: 1.42%
- viability, T/C [24]: 0.68%
- viability, T/C [25]: 68.2%
- viability, T/C [26]: 45.7%
- viability, T/C [27]: 37.1%
- viability, T/C [28]: 5.54%
- viability, T/C [29]: 3.32%
- viability, T/C [30]: 1.98%
- viability, T/C [31]: 42.8%
- viability, T/C [32]: 44.6%
- viability, T/C [33]: 26.1%
- viability, T/C [34]: 5.86%
- viability, T/C [35]: 3.74%
- viability, T/C [36]: 2.11%
